According to US20110092517A1, “Use of PPAR Delta Ligands for the Treatment or Prevention of Inflammation or Energy Metabolism/Production Related Diseases” (Cerenis Therapeutics S.A. & Nippon Chemiphar Co., Ltd., priority 2009, published 2011):
Values joined by “and” are separate entries in the source; they are usually repeats but may differ in a detail not shown here. Equal values may be shown once. “Also recorded” adds a separate entry of the source. Read-outs that look alike come from different tables or passages of the source.

Legend:
rat PPARα = target: T1, rat PPARα (Rattus norvegicus, UniProt P37230); assay: GAL4-PPAR chimera transactivation assay in CV-1 cells at 10% or 0.1% serum (Example 4); format: cell-based; conditions: read-out: GAL4-chimera (rat) EC50 (μM) hPPARα
T1 construct: expressed in transfected cells; host or cells: CV-1
T1 sequence (P37230 239-466 limits assumed): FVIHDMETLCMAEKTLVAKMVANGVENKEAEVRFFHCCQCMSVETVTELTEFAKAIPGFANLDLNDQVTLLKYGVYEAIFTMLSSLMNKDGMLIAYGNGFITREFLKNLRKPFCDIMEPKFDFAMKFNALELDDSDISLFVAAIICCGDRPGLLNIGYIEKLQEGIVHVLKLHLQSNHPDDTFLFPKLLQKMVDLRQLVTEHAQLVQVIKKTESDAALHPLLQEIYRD

TNF-α = TNF-α content in liver and epididymal white adipose tissue after 5 weeks of treatment in WD fed rats (ELISA); format: in vivo, rat; conditions: metformin 50, GW501516 10, compound I.1 10 mg/kg (alone or +metformin 50 mg/kg)
Method: (§1) At the end of the clamp procedure (9.5 hours fasting), perirenal, retroperitoneal, epididymal and inguinal fat pads and liver weights were recorded. Blood was collected from cardiac puncture and plasmas were stored at −80° C. for further assays if needed (depending on the radioactive state of samples). Liver triglyceride content was assessed (enzymatic-colorimetric method) as well as liver and adipose tissue TNF-α content (ELISA method).

[1] = Plasma biochemistry after 17 days of treatment in WD fed rats (glycemia, insulin, HOMA-IR, adiponectin, FFA, TG); format: in vivo, rat
[2] = Oral glucose tolerance test after 3 weeks of treatment in WD fed rats; format: in vivo, rat; conditions: 6 h fasted, oral glucose 2.5 g/kg after 3 weeks
[3] = Triglycerides content in the liver after 5 weeks of treatment in WD fed rats (enzymatic-colorimetric method); format: in vivo, rat; conditions: pioglitazone 10, GW501516 10, compound I.1 at any used dose
Method: as §1

[4] = Euglycemic-hyperinsulinemic 2 steps clamp with 3H-glucose after 5 weeks of treatment in WD fed rats; format: in vivo, rat
Method: After 4 weeks of treatment, a catheter was implanted into the femoral vein under isoflurane anaesthesia and a period of 5-6 days was respected for recovery. […] The morning of the clamp procedure, rats were treated and fasted for 6 hours prior to tracer, glucose and insulin infusions. The beginning of the clamp procedure was performed in the middle of the dark cycle.
The euglycemic hyperinsulinemic 2 steps insulin clamp was performed using 0.2 U/kg/h and 0.8 U/kg/h insulin infusion associated with 3H-glucose infusion. We then assessed:
During the clamp procedure, a bolus (30 μCi) of D-[3-3H]glucose was first injected followed by 4 μCi/min/kg infusion rate during all the experiment to ensure a detectable plasma D[3-3H]glucose enrichment. A bolus of insulin (100 mU) was first injected, and insulin was then infused at a rate of 0.2 U/kg/h for the first 2 hours and 0.8 U/kg/h from 120 minutes to 210 minutes.
Throughout the infusion, glycaemia was assessed with a blood glucose meter from the tip of the tail vein when needed. Euglycemia was maintained by periodically (every 10 minutes) adjusting a variable infusion of 30% glucose. Plasma glucose concentrations and D-[3-3H]glucose specific activity were determined during stable phase in 10 μl of blood sampled from the tip of the tail vein every 20 minutes from 60 to 120 minutes during the first step and from 150 to 210 minutes during the second step.
For glucose turnover measurements, D-[3-3H]glucose enrichments were determined from total blood after deproteinization by a Zn(OH)2 precipitate. Briefly, an aliquot of the supernatant was evaporated to dryness to determine the radioactivity corresponding to D-3-3H. In a second aliquot of the same supernatant, glucose concentration was assessed by the glucose oxidase method (Biomérieux, France).
Calculations for glucose turnover measurements were made from parameters obtained during the infusions in steady-state condition ([…]). Briefly, the D-[3-3H]glucose specific activity was calculated by dividing the D-[3-3H]glucose enrichment by the plasma glucose concentration. The whole body glucose turnover rate was calculated by dividing the rate of D[3-3H]glucose by the D-[3-3H]glucose plasma specific activity. For each rat, the mean values were calculated and averaged with values from rats of the same group. The whole body glycolysis rate was measured by assessing the amount of tritiated water accumulated in the blood during the 3H-glucose infusion and the whole body glycogen synthesis rate was calculated by the difference between the whole body glucose turnover and the whole body glycolysis rate.

mouse PPARγ = target: T2, mouse PPARγ (Mus musculus, UniProt P37238); assay: GAL4-PPAR chimera transactivation assay in CV-1 cells at 10% or 0.1% serum (Example 4); format: cell-based; conditions: read-out: GAL4-chimera (mouse) EC50 (μM) hPPARγ
T2 construct: amino acids 204-505 for m and mm from PPARγ; expressed in transfected cells; host or cells: CV-1
T2 sequence (P37238 204-505): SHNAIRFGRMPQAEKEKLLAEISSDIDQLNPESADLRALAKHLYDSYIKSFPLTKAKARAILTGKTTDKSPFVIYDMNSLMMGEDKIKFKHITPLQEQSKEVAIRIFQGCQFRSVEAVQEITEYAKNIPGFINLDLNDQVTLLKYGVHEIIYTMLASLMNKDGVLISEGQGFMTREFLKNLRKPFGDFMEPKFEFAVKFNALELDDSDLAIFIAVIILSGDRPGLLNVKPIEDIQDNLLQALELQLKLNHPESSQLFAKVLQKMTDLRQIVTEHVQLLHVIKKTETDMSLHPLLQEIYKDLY

## Cc1cc(C(=O)CCc2sc(-c3ccc(C(F)(F)F)cc3)nc2C(C)C)ccc1OCC(=O)O [compound I.1, 4-[3-[4-Isopropyl-2-[4-(trifluoromethyl)phenyl]-5-thiazolyl]propionyl]-2-methylphenoxyacetic acid]
Rat PPARα; 0.1% serum
  EC50: > 10 µM
Rat PPARα; 10% serum
  EC50: > 10 µM
TNF-α
  Decrease of TNF-α levels in epididymal white adipose tissues: 51%
[1]; 4 h fasted, pioglitazone 10, metformin 50, GW501516 10, compound I.1 10 mg/kg
  Decrease of HOMA-IR: ~25% and 28%
[1]; pioglitazone 10, metformin 50, GW501516 10, compound I.1 3 and 10 mg/kg
  Plasma adiponectin levels: did not prevent a decrease
[2]; compound I.1 3 mg/kg
  Glucose tolerance (OGTT, AUC, glycemia variation): slight tendency to improve glucose tolerance
[2]; pioglitazone 10, metformin 50, GW501516 10, compound I.1 10 mg/kg
  Glucose tolerance (OGTT, AUC, glycemia variation): significantly improved glucose tolerance
[3]
  Triglycerides content in the liver: did not affect; also recorded: did not significantly decrease
[4]; WD fed rats, after 5 weeks, compound I.1 dose not specified (3 and 10 mg/kg groups), pioglitazone 10, metformin 50 mg/kg
  Insulin resistance / insulin sensitizing effect (overall): improved insulin resistance in a lesser extent than pioglitazone and metformin, but was more effective than GW501516; also recorded: insulin sensitizing effect, less marked than metformin
[4]; WD fed rats, clamp after 5 weeks, metformin 50 mg/kg, compound I.1 dose not specified, alone or associated
  Whole body glucose oxidation: tended to increase
[4]; clamp 0.2 U/kg/h insulin, after 5 weeks, compound I.1 3 mg/kg
  Increase of GIR (glucose infusion rate) during the first step: 105%
[4]; clamp 0.2 U/kg/h insulin, compound I.1 3 mg/kg
  Decrease of HGP (hepatic glucose production): 22%
[4]; clamp 0.8 U/kg/h insulin, metformin 50, GW501516 10, compound I.1 10 mg/kg (alone or +metformin 50 mg/kg)
  Increase of glycolysis: 42%
Mouse PPARγ; 0.1% serum
  EC50: > 10 µM
Mouse PPARγ; 10% serum
  EC50: > 10 µM
